Values quoted from earlier work as cited in patent US20100125067A1, “SULFONAMIDE INHIBITORS OF CARBONIC ANHYDRASE II” (AUSPEX PHARMACEUTICALS, INC., priority 2008, published 2010).

How the values were obtained:
carbonic anhydrase I = carbonic anhydrase I (Homo sapiens, UniProt P00915); conditions: as compared to the parent compound dorzolamide
carbonic anhydrase II = carbonic anhydrase II (Homo sapiens, UniProt P00918); conditions: as compared to the parent compound dorzolamide

carbonic anhydrase I, sequence (P00915 whole entry, species assumed): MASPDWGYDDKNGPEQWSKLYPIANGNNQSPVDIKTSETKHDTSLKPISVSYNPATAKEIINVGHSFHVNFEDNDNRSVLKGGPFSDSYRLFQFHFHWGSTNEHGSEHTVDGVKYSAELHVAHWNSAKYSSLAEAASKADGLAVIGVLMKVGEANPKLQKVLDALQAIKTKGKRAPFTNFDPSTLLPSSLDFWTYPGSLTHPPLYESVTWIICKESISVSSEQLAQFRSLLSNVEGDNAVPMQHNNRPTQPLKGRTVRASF

- potency as inhibitor of carbonic anhydrase I (carbonic anhydrase I): more potent inhibitor
- potency as inhibitor of carbonic anhydrase II (carbonic anhydrase II): less potent inhibitor
SMILES: CC1CC(N)c2cc(S(N)(=O)=O)sc2S1(=O)=O (centres unmarked) [N-de-ethylated metabolite]
